The results in this text go back to US5872118A, “Bicyclic amide derivatives and their use as muscle relaxants” (Glaxo Wellcome Inc., priority 1993, dated 1999).

Like-named read-outs stand apart in the source and are kept apart here. Some results are limits rather than exact numbers.

Series [1] concerns morphine-induced Straub tail. The series can be described thus: Straub tail test (central muscle relaxant activity). It counts as in vivo. The conditions noted are these: Mus musculus, 1 h; mice, oral gavage 60 min prior to scoring; dose preventing Straub tail in 50% of mice; read-out: Straub Tail p.o. ED50. On the procedure:
Central muscle relaxant activity of compounds of formula (I) was determined using a Straub tail test based on that described by K. O. Ellis and J. F. Carpenter, Neuropharrnacol, 13, 211 (1974).
The Straub tail test result is reported as an ED50 in mg/kg. The ED50 is defined as the dose of compound administered, which prevents Straub tail in 50% of mice. The compound is administered by oral gavage 60 min. prior to scoring.
(§1) Antagonism of morphine-induced Straub tail reflects central muscle relaxant efficacy while failure in the rotorod test reflects sedation and incoordination. Determination of the ratio of rotorod failure to antagonism of morphine-induced Straub tail is a means of assessing side effect liability of central muscle relaxants (G. D. Novak, Drug Dev. Res., 2, 383 (1982).

Series [2] can be described thus: single dose oral toxicity. It counts as in vivo, male CD-1 mice. The note with it: mouse, in vivo; single oral gavage, non-fasted male CD-1 mice, seven days; read-out: maximum tolerated dose. Here is the method:
(§2) Single doses (15, 45, 100 or 250 mg/kg) were administered by oral gavage to groups of four non-fasted male CD-1 mice (Charles River).
(§3) Single doses (5, 15, 40, 100, 250, 500 or 1000 mg/kg) were administered by oral gavage to groups of four non-fasted male CD-1 mice (Charles River).

In series [3] the test system is CD-1 mice. The series can be described thus: single dose oral toxicity. The series is classed as in vivo, male CD-1 mice. The conditions noted are these: within the seven days post dosing, single oral gavage, male CD-1 mice. On the procedure:
as §2, §3

Series [4] deals with carrageenan-induced cell accumulation and edema formation within the rat pleural cavity. In words: carrageenan pleurisy assay (anti-inflammatory activity). It counts as in vivo, rat (Lewis male). The conditions noted are these: po, fasted rats, 0.5 hr before carrageenan, 4 hr. Here is the method:
The rats used in these experiments were Lewis males, weighing 160-180 g, assigned to groups consisting of 5 animals. Test compounds were given to fasted rats by oral gavage 0.5 hr prior to intrapleural injection of 50 mg carrageenan. After 4 hr, the pleural exudate was collected and the edema volume and cell number were determined. ED50 values were estimated by linear regression analysis, and represent the doses at which a given drug produced 50% inhibition of carrageenan-induced cell accumulation and edema formation within the rat pleural cavity.

The nature of series [5]: mouse rotorod test (sedation and incoordination). The conditions noted are these: in vivo, po; for selectivity ratio: ratio of rotorod ED50 to Straub tail ED50, p.o. Here is the method:
The side effect potential of these compounds was determined using the mouse rotorod test as described by G. D. Novak and J. M. Zwolshei, J.Pharmacological. Methods, 10, 175 (1983). Rotorod result is reported as ED50 in mg/kg. The ED50 is the dose which causes 50% of the animals to fail to maintain position on a cylinder rotating at 11 r.p.m.
as §1
(In general: In the rotarod test animals must keep their balance on a rotating rod.)

The subject of series [6] is established adjuvant-induced polyarthritis. In words: established adjuvant-induced polyarthritis. The series is classed as in vivo, rat (female Lewis). The conditions noted are these: 50 mg/kg b.i.d. Here is the method:
The procedures for this test have been described in detail by R. Vinegar, J. F. Truax, J. L. Selph, A. Lea, and P. R. Johnston (J. Immunopharmacol. 1:497-520, 1979). The rats used in these studies were female Lewis rats whose starting weight was 190±10 g. Arthritic rats were assigned to treatment groups consisting of six animals each. Fed rats were dosed by oral gavage starting on day 21 post adjuvant injection; therapy was continued until day 28. The incidence and severity of arthritic lesions were assessed using a modification of the scoring procedure described by H. L. F. Currey and M. Ziff (J. Exp. Med. 121:185-203, 1968). Briefly, the bilateral joints were scored for erythema, edema, and ankylosis as outlined below:
The maximal possible score per rat was 40. Experimental results were analyzed by one-way ANOVA, followed by post hoc comparisons of treatment effects versus untreated arthritic control using the Newman-Keuls test. The percent inhibition of each drug-treated group was calculated from the mean relative to the arthritic control.

Series [7] deals with trypsin-induced rat hind limb hyperalgesia. In words: trypsin-induced rat hind limb hyperalgesia assay (mild analgesia). The series is classed as in vivo, rat (Lewis male). The note with it: po, fasted rats, 0.5 hours prior to trypsin, 50% inhibition of latency response. On the procedure: The rats used in these studies were Lewis male, weighing 160-180 g. and assigned to groups consisting of 5-6 animals. Test compounds were given to fasted rats by oral gavage 0.5 hours prior to the subplantar injection of […] trypsin in one hind limb. One hour later the rats were evaluated for hyperalgesia using an F-shaped mechanical force clamp on the injected hind limb metatarsal area. Latency (seconds) to the algesic response (vocalization or flight) was determined, with 4 seconds being the maximum latency allowed. ED50 values were estimated by linear regression analysis and represent the dose at which a given drug extended the latency response to produce 50% inhibition using the formula: (4 sec.-Control Latency)-(4 sec.-Test Latency)/4 sec.-Control Latency×100.

In series [8] the test system is algesic response to mechanical force clamp on the phalanges. In words: phalanges algesic assay (strong analgesia). It counts as in vivo, rat (Lewis male). The note with it: Rattus norvegicus, po, 1 h; p.o., fasted rats, one hour after dosing; 50% inhibition of latency response. Here is the method:
The rats used in these studies were Lewis male weighing 160-180 g and assigned to groups of 5-6 animals. The phalanges algesic assay is an algesic test (no hyperalgesia) in which test compounds were given to fasted rats by oral gavage. One hour later an F-shaped mechanical force clamp was applied to the phalanges of one hind limb which initiated an algesic response(vocalization or flight). Latency (seconds) to the algesic response was determined with 3 seconds maximum allowed time. ED50 values were estimated by linear regression analysis and represent the dose at which a given compound extended the latency response to produce 50% inhibition using the formula: (3 sec.-Control Latency)-(3 sec.-Test Latency)/3 sec.-Control Latency×100.

Series [9] has as its system maximal electroshock-induced convulsions. The series can be described thus: protection against maximal electroshock-induced convulsions. The series is classed as in vivo. The note with it: ip; rat, i.p.; prevention of hind limb extension in 50% of animals; read-out: ED50 MES (maximal electroshock). Here is the method: Anticonvulsant activity of compounds of formula (I) was determined using a method described by Mehta et al., J.Med.Chem., 24, 465 (1981).
The anticonvulsant activity is reported as an ED50 in mg/kg. The ED50 for protection against maximal electroshock-induced convulsions was the dose which prevented hind limb extension in 50% of the animals. The ED50 for protection against Metrazol-induced convulsions was the dose which prevented convulsions in 50% of the animals.
On the technique in general: Protection in the maximal electroshock model is a classic sign of anticonvulsant action.

Series [10] has as its system punished responding. In words: anxiolytic activity, punished responding (Geller and Seifter). It counts as in vivo. The note with it: Rattus norvegicus, po; rats, p.o.; lowest dose producing significant increase in punished responding; read-out: MED (Minimal Effective Dose). Here is the method:
Anxiolytic activity of compounds of formula (I) was measured using the method of Geller and Seifter, J.Psychopharmacolgia, 1, 482 (1960) as modified by Pollard and Howard, Psychopharmacology, 62, 117 (1979). Clinically efficacious anxiolytics increase punished responding. The anxiolytic activity of the compound is reported as the lowest dose necessary to produce a significant increase in punished responding in rats(MED).

[11] abbreviates: 50% inhibition of cell accumulation, read-out: ED50 Cells.
Where [12] appears, read: 50% inhibition of edema formation, read-out: ED50 Edema.

In the case of `NC(=O)/C=C1\CCc2ccc(F)cc21` [Example 1, (E)-2-(6-Fluoro-1-indanylidene)acetamide], the ED50 amounted to 51 mg/kg in [1], 21 mg/kg in series [4] (setting [11]) and 20 mg/kg in series [4] (setting [12]). For the same molecule, in series [2], the MTD at 168 h is over 250 mg/kg. Further, the deaths entry in [3] is reported as “no deaths”. In series [5], this molecule showed a TD50 of 88 mg/kg. In addition, the selectivity ratio in series [5] was 1.7.

As for `NC(=O)/C=C1\CCc2c(F)cc(F)cc21` [Example 5, (E)-2-(4,6-difluoro-1-indanylidene)acetamide], the arthritic scores result in [6] (days 22, 25, and 27, oral gavage) is given as “significantly (p<0.01) lowered”. Further, the Spleen weight result in series [6] (postmortem on day 27) is given as “significantly reduced (p<0.01)”. The plasma fibrinogen result in [6] (postmortem on day 27) was “significantly reduced (p<0.01)”. The ED50 in series [1] is 54 mg/kg; in series [4] (setting [11]), 16 mg/kg; in series [4] (setting [12]), 12 mg/kg; in [7], 4 mg/kg; in series [8] it was 22 mg/kg. Moreover, the MTD at 168 h in [2] is over 1000 mg/kg. Further, the deaths entry in [3] is listed as “no deaths”. In addition, the TD50 in series [5] turned out to be 79 mg/kg. Also, in [5], the selectivity ratio was 1.5.

For the molecule `O=C(/C=C1\CCCc2ccc(F)cc21)NC1CC1` [Example 13, (E)-N-Cyclopropyl-2-(7-fluoro-1,2,3,4-tetrahydro-1-naphthylidene)acetamide], in series [9], the 50% effective dose (ED50) was found to be 25 mg/kg. Also, in [10], the minimal effective dose is 3.13 mg/kg.

Usually ED50 stands for the dose that gives a 50% effect, or the effect in half of the subjects. As usually defined, the TD50 is the dose at which the toxic effect under study appears in half of the subjects. One may read the minimal effective dose as the smallest amount tested that counted as effective.
